Experimental data published in ChEMBL document CHEMBL3044724, “Differential efficacy of three commonly used pyrethroids against laboratory and field-collected larvae and adults of Helicoverpa zea (Lepidoptera: Noctuidae) and significance for pyrethroid resistance management” (2010).

What was measured:
Assay type in all cases: functional
Helicoverpa zea [1] = test: Resistant ratio, ratio of LC90 for F1 generation of adult of Helicoverpa zea (corn earworm) to LC90 for adult of corn earworm
Helicoverpa zea [2] = test: Resistant ratio, ratio of LC90 for F1 generation of third-instar of Helicoverpa zea (corn earworm) to LC90 for third-instar of corn earworm
Helicoverpa zea [3] = test: Resistant ratio, ratio of LC50 for F1 generation of adult of Helicoverpa zea (corn earworm) to LC50 for adult of corn earworm
Helicoverpa zea [4] = test: Resistant ratio, ratio of LC50 for F1 generation of third-instar of Helicoverpa zea (corn earworm) to LC50 for third-instar of corn earworm
Helicoverpa zea [5] = test: Insecticidal activity against F1 generation of adult of Helicoverpa zea (corn earworm) assessed as mortality per insecticide vial after 24 hr
Helicoverpa zea [6] = test: Insecticidal activity against F1 generation of third-instar of Helicoverpa zea (corn earworm) assessed as mortality per insecticide vial after 48 hr
Helicoverpa zea [7] = test: Insecticidal activity against adult of Helicoverpa zea (corn earworm) assessed as mortality per insecticide vial after 24 hr
Helicoverpa zea [8] = test: Insecticidal activity against third-instar of Helicoverpa zea (corn earworm) assessed as mortality per insecticide vial after 48 hr

CC1(C)C(C=C(Cl)Cl)C1C(=O)OC(C#N)c1cccc(Oc2ccccc2)c1 (stereo not drawn) [ALPHA-CYPERMETHRIN]
Ratio (Helicoverpa zea [1]): 3.82
Ratio (Helicoverpa zea [2]): 6.28
RatioLC50 (Helicoverpa zea [3]): 4.16
RatioLC50 (Helicoverpa zea [4]): 4.68
LC50 (Helicoverpa zea [5]): 2.89 µg
LC90 (Helicoverpa zea [5]): 7.12 µg
LC50 (Helicoverpa zea [6]): 1.71 µg
LC90 (Helicoverpa zea [6]): 7.68 µg
LC50 (Helicoverpa zea [7]): 0.7 µg
LC90 (Helicoverpa zea [7]): 1.86 µg
LC50 (Helicoverpa zea [8]): 0.37 µg
LC90 (Helicoverpa zea [8]): 1.22 µg

Cc1c(COC(=O)[C@@H]2[C@H](/C=C(\Cl)C(F)(F)F)C2(C)C)cccc1-c1ccccc1 [BIFENTHRIN]
Ratio (Helicoverpa zea [1]): 5.9
Ratio (Helicoverpa zea [2]): 15.22
RatioLC50 (Helicoverpa zea [3]): 9.28
RatioLC50 (Helicoverpa zea [4]): 9.41
LC50 (Helicoverpa zea [5]): 1.54 µg
LC90 (Helicoverpa zea [5]): 3.01 µg
LC50 (Helicoverpa zea [6]): 1.25 µg
LC90 (Helicoverpa zea [6]): 5.8 µg
LC50 (Helicoverpa zea [7]): 0.17 µg
LC90 (Helicoverpa zea [7]): 0.51 µg
LC50 (Helicoverpa zea [8]): 0.13 µg
LC90 (Helicoverpa zea [8]): 0.38 µg

CC(C)[C@H](C(=O)O[C@H](C#N)c1cccc(Oc2ccccc2)c1)c1ccc(Cl)cc1
Ratio (Helicoverpa zea [1]): 4.37
Ratio (Helicoverpa zea [2]): 3.17
RatioLC50 (Helicoverpa zea [3]): 4.67
RatioLC50 (Helicoverpa zea [4]): 3.75
LC50 (Helicoverpa zea [5]): 2.3 µg
LC90 (Helicoverpa zea [5]): 5.9 µg
LC50 (Helicoverpa zea [6]): 1.51 µg
LC90 (Helicoverpa zea [6]): 4.59 µg
LC50 (Helicoverpa zea [7]): 0.49 µg
LC90 (Helicoverpa zea [7]): 1.35 µg
LC50 (Helicoverpa zea [8]): 0.4 µg
LC90 (Helicoverpa zea [8]): 1.45 µg
